Measurements published in ChEMBL document CHEMBL3639270, “Therapeutic agents” (2013).

Target: E3 ubiquitin-protein ligase Mdm2 (Homo sapiens, UniProt Q00987)
Assay: ELISA Assay: Streptavidin-coated 96-well plates are used to immobilise a biotin-tagged IP3 p53-derived peptide ([…]). This is a peptide analogue derived from the p53 binding site for MDM2 ([…]). […] Aliquots of MDM2 generated by in vitro translation are pre-incubated for 20 minutes at room temperature (i.e. 20-25C.) with test compounds and controls, before transfer into the IP3-coated 96-well plates.

E3 ubiquitin-protein ligase Mdm2, sequence (Q00987 whole entry): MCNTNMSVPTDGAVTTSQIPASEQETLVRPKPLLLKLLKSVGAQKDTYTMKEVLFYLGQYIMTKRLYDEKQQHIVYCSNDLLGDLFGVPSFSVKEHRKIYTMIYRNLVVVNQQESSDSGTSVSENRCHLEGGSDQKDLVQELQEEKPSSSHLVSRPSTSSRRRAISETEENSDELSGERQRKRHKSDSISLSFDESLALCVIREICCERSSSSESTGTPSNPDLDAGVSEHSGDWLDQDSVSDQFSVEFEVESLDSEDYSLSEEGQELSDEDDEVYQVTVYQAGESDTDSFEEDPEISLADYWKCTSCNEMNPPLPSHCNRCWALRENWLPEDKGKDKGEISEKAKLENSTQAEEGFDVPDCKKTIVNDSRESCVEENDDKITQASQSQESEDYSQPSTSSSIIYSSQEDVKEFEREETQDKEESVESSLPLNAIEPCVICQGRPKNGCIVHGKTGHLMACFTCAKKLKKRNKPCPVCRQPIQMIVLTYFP

O=C1c2ccccc2C(O[C@H]2CCC[C@@H](O)CCC2)(c2ccc(Cl)cc2)N1Cc1ccc([N+](=O)[O-])cc1 (stereo partly specified)
IC50: 0.375 µM
